Data reported in ChEMBL document CHEMBL1201862, “PubChem BioAssay data set” (2004).
pIC50: −log10 of the molar value. The source made the active and inactive calls.

Tests used:
[1] = molecular target: T1, Tyrosine-protein phosphatase non-receptor type 7 (Homo sapiens, UniProt P35236); assay: HePTP tyrosine phosphatase activity blockers – biochemical, absorbance, leukemia target, primary screen (AID 521); type: functional
T1 sequence (P35236 whole entry): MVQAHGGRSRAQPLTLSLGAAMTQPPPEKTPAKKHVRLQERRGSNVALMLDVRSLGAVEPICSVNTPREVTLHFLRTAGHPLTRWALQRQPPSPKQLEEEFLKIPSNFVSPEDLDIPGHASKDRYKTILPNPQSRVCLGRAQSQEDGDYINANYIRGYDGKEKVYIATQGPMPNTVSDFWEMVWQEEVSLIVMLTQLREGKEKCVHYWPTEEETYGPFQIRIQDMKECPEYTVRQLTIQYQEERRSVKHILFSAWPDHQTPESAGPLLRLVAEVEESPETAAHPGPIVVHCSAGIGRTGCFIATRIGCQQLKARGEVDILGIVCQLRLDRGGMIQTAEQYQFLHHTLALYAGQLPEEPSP

[2] = Trypanosoma cruzi growth suppression in host cells – NIH3T3 host cells, beta-gal luminescence, confirmation (AID 2044); type: functional, cell-based;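 also: intracellular parasites grown in NIH/3T3 mouse fibroblasts as host cells; luminescent beta-galactosidase reporter signal from transgenic T. cruzi replicating inside host cells; inhibitors lower the luminescence signal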
[3] = cells
[4] = NIH3T3 cell viability loss – ATP luminescence, mouse fibroblasts, counter-screen, dose response (AID 2010); type: functional, cell-based;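 also: cells exposed to compound for about 90 hours before reading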
[5] = molecular target: T2, Kappa-type opioid receptor (Homo sapiens, UniProt P41145); type: functional
T2 sequence (P41145 whole entry): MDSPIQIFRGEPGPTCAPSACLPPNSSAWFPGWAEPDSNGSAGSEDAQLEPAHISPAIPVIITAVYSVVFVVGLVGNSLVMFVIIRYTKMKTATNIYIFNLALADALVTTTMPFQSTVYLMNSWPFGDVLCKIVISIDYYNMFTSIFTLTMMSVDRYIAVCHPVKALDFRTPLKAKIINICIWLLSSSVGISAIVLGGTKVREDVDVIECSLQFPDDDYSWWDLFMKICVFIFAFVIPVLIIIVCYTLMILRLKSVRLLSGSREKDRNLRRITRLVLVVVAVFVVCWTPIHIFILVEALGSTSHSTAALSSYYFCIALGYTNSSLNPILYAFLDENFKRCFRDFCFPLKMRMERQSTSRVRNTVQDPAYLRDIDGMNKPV

[6] = molecular target: Bifunctional protein GlmU (Mycobacterium tuberculosis, UniProt P9WMN3); assay: Inhibitors of Mycobacterial Glucosamine-1-phosphate acetyl transferase (GlmU). Secondary screen.; set-up: species or system Mycobacterium tuberculosis H37Rv
Chain of Bifunctional protein GlmU (P9WMN3 whole entry): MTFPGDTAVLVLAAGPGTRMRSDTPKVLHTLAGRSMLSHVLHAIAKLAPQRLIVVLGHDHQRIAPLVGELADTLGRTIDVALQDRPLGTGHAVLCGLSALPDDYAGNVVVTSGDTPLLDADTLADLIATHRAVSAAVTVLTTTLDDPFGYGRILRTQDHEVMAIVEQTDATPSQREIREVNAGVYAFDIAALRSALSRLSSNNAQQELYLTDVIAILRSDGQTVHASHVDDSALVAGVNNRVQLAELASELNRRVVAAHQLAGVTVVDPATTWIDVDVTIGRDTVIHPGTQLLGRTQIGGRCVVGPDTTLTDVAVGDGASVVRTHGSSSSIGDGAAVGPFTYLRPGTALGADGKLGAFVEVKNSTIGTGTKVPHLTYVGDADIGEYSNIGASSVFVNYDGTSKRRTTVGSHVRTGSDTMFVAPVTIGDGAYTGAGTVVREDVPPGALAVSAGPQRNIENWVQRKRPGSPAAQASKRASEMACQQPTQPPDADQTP

[7] = molecular target: Paired box protein Pax-8 (Homo sapiens, UniProt Q06710); assay: PAX8 transcriptional activity inhibition in RMG-I – RMG-I cells, luciferase, cherry-pick, dose response (AID 687027); type: functional, cell-based;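 also: luciferase reporter driven by Pax8 target thyroperoxidase promoter measured by SteadyGlo luminescence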
Chain of Paired box protein Pax-8 (Q06710 whole entry): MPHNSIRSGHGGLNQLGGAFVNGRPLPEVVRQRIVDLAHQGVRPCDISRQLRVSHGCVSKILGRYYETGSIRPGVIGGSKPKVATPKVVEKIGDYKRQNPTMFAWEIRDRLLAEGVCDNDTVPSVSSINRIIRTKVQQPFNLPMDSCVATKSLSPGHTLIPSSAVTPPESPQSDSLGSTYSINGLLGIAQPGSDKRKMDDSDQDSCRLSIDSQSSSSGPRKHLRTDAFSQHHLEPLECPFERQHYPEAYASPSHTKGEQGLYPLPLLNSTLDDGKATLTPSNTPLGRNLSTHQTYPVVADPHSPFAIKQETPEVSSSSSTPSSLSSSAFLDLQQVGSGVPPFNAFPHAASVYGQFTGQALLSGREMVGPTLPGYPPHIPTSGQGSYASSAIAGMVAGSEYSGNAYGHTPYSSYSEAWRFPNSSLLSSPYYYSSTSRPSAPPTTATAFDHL

[8] = molecular target: T3, Delta-type opioid receptor (Homo sapiens, UniProt P41143); assay: HTS Image-Based Screen for Agonists of the DOR Receptor. [Related pubchem assays (depositor defined):AID1777, AID1786, AID2133]; type: functional
T3 sequence (P41143 whole entry): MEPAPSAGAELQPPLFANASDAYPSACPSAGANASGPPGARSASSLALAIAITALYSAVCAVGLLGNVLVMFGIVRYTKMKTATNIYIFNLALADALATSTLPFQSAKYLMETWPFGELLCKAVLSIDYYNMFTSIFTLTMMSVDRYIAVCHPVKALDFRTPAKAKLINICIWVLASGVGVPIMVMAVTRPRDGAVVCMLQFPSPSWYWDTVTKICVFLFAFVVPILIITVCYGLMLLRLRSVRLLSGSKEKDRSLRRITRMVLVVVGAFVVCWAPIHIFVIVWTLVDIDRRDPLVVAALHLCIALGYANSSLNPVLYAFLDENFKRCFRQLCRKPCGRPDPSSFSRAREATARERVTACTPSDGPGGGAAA

[9] = molecular target: T2, Kappa-type opioid receptor; type: functional; remark: listed apart in the source
[10] = molecular target: T4, Type-1 angiotensin II receptor (Homo sapiens, UniProt P30556); assay: antagonism of angiotensin II type 1 receptor – cell-based, uHTS hits, selectivity assay for APJ receptor antagonist project, dose response (AID 463214); type: functional;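 also: antagonist potency against angiotensin II stimulated AT1 response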
T4 sequence (P30556 whole entry): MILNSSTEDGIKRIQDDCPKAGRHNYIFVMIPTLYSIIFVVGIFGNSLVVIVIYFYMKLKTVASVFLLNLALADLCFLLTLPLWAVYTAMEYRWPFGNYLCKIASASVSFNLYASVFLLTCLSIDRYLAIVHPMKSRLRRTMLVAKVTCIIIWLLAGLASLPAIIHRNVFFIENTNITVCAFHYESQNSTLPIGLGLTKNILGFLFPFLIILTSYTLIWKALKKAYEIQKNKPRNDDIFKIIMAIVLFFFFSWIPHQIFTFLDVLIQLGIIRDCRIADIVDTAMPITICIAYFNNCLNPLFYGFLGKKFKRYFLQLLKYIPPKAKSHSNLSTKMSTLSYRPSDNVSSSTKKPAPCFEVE

[11] = molecular target: Genome polyprotein (dengue virus type 2, UniProt P29990); assay: flavivirus cap methylation enzyme inhibition – biochemical, confirmation dose response, primary screen (AID 588689); type: functional
Chain of Genome polyprotein (P29990 2492-3391 limits assumed): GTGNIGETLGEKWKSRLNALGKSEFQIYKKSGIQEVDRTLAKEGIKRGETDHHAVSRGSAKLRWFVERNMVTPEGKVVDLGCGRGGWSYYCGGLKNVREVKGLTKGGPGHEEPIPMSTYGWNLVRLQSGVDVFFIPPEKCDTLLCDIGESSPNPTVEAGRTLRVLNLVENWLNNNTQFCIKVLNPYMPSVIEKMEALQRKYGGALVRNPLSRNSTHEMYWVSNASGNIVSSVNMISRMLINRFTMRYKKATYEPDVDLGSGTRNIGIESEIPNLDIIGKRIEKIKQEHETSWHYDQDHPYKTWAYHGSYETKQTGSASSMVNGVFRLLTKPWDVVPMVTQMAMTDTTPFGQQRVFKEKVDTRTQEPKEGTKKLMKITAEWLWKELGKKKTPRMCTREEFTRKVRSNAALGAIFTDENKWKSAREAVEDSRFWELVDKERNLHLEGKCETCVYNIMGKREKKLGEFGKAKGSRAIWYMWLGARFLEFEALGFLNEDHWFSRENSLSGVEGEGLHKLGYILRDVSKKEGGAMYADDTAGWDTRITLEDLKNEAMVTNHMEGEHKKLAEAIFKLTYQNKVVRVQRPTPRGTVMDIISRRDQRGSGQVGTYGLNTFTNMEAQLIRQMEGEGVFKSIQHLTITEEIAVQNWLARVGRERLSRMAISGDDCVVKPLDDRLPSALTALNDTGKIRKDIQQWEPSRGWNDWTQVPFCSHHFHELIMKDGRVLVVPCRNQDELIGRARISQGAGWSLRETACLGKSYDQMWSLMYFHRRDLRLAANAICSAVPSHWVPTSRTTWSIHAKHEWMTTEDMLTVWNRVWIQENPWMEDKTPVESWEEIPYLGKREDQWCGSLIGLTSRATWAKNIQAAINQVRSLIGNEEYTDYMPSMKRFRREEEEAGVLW

[12] = system: CHO; assay: CHO cell viability loss, potency – luminescence, cytotoxicity control for TLR9-MyD88 binding inhibitor project, dose response (AID 588339); type: functional, cell-based, hamster; settings: Cricetulus griseus;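 also: CHO cells stably coexpressing TLR9 and MyD88 fusions from primary screen; compound exposure lasted 48 hours before viability readout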
[13] = system: Vero; assay: viability of Vero cells under compound – cytotoxicity control for flavivirus capping enzyme inhibitors (AID 588742); type: functional; settings: Chlorocebus sabaeus
[14] = molecular target: T5, Beta-galactosidase (Escherichia coli, UniProt Q8VNN2); type: functional
T5 sequence (Q8VNN2 whole entry): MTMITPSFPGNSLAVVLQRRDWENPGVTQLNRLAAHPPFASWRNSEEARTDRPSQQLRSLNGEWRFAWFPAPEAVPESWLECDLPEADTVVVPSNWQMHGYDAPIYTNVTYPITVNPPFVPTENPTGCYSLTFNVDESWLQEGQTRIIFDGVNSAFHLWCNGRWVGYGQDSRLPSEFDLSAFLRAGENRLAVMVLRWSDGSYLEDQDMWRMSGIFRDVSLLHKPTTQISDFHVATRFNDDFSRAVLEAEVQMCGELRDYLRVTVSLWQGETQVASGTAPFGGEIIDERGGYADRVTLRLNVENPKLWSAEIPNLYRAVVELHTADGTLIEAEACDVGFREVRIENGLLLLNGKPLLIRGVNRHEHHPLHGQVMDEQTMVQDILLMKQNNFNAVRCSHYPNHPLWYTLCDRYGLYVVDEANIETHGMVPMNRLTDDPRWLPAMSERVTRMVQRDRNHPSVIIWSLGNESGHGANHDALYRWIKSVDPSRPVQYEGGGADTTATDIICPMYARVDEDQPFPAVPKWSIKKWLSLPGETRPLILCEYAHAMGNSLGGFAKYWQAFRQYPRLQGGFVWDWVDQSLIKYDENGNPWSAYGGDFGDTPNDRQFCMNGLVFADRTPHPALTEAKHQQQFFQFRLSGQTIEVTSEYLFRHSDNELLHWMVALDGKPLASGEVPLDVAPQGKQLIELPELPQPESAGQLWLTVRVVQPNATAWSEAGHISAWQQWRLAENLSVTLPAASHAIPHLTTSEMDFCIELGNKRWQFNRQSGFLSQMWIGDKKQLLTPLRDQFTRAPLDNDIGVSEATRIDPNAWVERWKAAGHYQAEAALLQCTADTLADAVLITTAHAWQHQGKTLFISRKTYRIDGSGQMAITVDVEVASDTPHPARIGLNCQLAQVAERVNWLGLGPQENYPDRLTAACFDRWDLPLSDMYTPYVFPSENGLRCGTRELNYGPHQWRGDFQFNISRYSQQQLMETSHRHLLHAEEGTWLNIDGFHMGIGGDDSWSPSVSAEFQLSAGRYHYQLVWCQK

[15] = molecular target: G-protein coupled receptor 55 (Homo sapiens, UniProt Q9Y2T6); assay: inhibition of LPI-stimulated GPR55 beta-arrestin translocation – imaging, U2OS, beta-arrestin-GFP, LPI agonist, primary screen (AID 2013); type: functional;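 also: antagonist potency measured as reduced agonist-driven arrestin aggregation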
Chain of G-protein coupled receptor 55 (Q9Y2T6 whole entry): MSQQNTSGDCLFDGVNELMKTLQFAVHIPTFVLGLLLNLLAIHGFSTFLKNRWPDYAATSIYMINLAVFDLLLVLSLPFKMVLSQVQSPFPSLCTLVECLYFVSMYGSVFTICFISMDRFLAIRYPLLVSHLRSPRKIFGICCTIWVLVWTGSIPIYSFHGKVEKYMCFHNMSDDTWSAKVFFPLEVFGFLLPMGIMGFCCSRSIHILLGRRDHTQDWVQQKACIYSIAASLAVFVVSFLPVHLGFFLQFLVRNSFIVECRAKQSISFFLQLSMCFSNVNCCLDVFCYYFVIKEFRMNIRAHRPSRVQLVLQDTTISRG

[16] = molecular target: T5, Beta-galactosidase; assay: PubChem AID 485352; type: functional
[17] = molecular target: Mu-type opioid receptor (Homo sapiens, UniProt P35372); assay: HTS Image-Based Screen for Agonists of the MOR Receptor. [Related pubchem assays (depositor defined):AID1777, AID1785, AID1786, AID2133]; type: functional;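 also: imaging of beta-arrestin GFP recruitment into spots after receptor activation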
Chain of Mu-type opioid receptor (P35372 whole entry): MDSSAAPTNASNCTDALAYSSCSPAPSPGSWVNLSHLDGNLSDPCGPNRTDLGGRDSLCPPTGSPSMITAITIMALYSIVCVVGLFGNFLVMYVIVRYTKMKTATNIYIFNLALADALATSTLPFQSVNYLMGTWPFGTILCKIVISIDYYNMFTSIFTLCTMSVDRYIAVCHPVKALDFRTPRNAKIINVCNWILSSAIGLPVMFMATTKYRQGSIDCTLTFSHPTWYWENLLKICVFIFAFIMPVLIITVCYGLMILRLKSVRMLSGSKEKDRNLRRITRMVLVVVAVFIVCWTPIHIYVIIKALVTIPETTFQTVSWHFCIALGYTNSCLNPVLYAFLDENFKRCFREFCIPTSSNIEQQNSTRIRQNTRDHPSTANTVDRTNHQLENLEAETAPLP

[18] = molecular target: Beta Lactamase (Pseudomonas aeruginosa, UniProt Q932Y6); assay: BLA reporter interference, concentration series – BLA reporter cells, FRET fluorescence, artefact control for TLR9-MyD88 binding inhibitor project, dose response (AID 588341); type: cell-based;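 also: cell based assay in CHO-K1 cells stably expressing beta-lactamase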
Chain of Beta Lactamase (Q932Y6 whole entry): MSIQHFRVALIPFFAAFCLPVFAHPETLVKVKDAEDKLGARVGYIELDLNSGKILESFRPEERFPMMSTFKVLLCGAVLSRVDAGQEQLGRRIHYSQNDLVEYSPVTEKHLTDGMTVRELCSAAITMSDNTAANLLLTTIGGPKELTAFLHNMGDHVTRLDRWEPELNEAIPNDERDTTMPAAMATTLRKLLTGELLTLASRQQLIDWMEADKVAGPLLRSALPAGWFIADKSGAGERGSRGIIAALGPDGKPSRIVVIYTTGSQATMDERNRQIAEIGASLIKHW

[19] = molecular target: T3, Delta-type opioid receptor; assay: HTS Image-Based Screen for Antagonists of the DOR Receptor. [Related pubchem assays (depositor defined):AID1777, AID1785, AID1786, AID2133]; type: functional

NS(=O)(=O)c1cc2c(cc1C(F)(F)F)NCNS2(=O)=O [HYDROFLUMETHIAZIDE]
IC50 [1]: > 100 µM (not active)

CC(Oc1ccc(Br)cc1)C(=O)Nc1ccc(S(=O)(=O)N(C)C2CCN(C)CC2)cc1 (centres undefined)
EC50 [2]: < 100 nM (active)
EC50 [3]: 73 nM (active)
EC50 [4]: 8.64 µM (active)

Cc1c(Nc2cc(Cl)c3nonc3c2[N+](=O)[O-])c(=O)n(-c2ccccc2)n1C
pIC50 [5]: 4.52
IC50 [6]: 123 µM (active)
AC50 [7]: 8.97 µM (active)
EC50 [8]: > 32 µM (inactive)
IC50 [9]: 4.14 µM (active)
IC50 [10]: 2.33 µM (active)
IC50 [11]: 21.4 µM (active)
IC50 [12]: 1.53 µM (active)
CC50 [13]: 12.7 µM (active)
EC50 [14]: > 31.5 µM (inactive)
IC50 [15]: 3.48 µM (active)
EC50 [16]: > 40 µM (inactive)
EC50 [17]: > 32 µM (inactive)
IC50 [18]: 6 µM (active)
IC50 [19]: > 32 µM (inactive)
